Data on 22 molecules can be found in patent publication US10131653B2, “Heterocyclic compound” (TAKEDA PHARMACEUTICAL COMPANY LIMITED, priority 2015, dated 2018).

One assay concerns the target T1, human OX1 receptor (Homo sapiens, UniProt O43613).
T1 construct: expressed in transfected cells; host or cells: CHO cells
T1 sequence (O43613 1-425): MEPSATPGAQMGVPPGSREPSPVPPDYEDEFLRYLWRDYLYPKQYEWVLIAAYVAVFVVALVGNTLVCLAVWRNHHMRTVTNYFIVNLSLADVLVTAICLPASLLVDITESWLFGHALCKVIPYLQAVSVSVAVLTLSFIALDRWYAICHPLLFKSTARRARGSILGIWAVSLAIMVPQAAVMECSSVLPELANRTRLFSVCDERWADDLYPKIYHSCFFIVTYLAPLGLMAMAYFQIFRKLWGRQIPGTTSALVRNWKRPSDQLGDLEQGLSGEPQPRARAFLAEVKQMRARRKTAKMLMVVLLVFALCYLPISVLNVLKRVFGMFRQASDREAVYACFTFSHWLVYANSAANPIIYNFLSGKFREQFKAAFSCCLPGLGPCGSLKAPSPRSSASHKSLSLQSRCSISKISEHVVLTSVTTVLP
Nature of the assay: Measurement of orexin receptor antagonistic activity (calcium fluorescence, FLIPRtetra). Format: cell-based. As to conditions: CHO, read-out: Human Orexin1 receptor inhibition (at 10 μM). The gist of the method: (§1)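 Calcium fluorescence measured by FLIPRtetra every second for 2 min after orexin-A challenge, 1 nM final for OX1 and 0.3 nM final for OX2. Receptor-expressing CHO cells received compound in HEPES-buffered HBSS with 0.1% BSA just before agonist.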

For a further assay, the target named is T2, human OX2 receptor (Homo sapiens, UniProt O43614).
T2 construct: expressed in transfected cells; host or cells: CHO cells
T2 sequence (O43614 1-444): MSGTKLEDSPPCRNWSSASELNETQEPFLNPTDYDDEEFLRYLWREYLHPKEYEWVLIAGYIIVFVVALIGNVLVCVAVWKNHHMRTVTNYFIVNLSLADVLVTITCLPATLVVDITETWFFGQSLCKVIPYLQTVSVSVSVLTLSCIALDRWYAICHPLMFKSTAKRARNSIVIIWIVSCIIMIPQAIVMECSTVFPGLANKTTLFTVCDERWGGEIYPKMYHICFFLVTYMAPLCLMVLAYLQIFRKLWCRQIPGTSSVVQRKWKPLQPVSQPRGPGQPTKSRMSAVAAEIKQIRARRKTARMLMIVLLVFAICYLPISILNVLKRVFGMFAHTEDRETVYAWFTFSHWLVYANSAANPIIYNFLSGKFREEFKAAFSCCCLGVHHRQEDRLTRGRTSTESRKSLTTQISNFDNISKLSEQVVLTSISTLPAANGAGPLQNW
Described as above. It counts as cell-based. As to conditions: CHO, read-out: Human Orexin2 receptor inhibition (at 10 μM). The gist of the method:
as §1

Setting [1] is: 10 μM test compound, CHO cells expressing human OX1 receptor, OX-A 1 nM.
Setting [2] is: 10 μM test compound, CHO cells expressing human OX2 receptor, OX-A 0.3 nM.

Counter-ions that a name gives are not always drawn. Like-named read-outs stand apart in the source and are kept apart here.

As for `C[C@H]1CN(C(=O)c2ccccc2-n2nccn2)CCN(c2cc(C(F)F)nc(C3CC3)n2)O1` [Example 95, ((7S)-2-(2-cyclopropyl-6-(difluoromethyl)pyrimidin-4-yl)-7-methyl-1,2,5-oxadiazepan-5-yl) (2-(2H-1,2,3-triazol-2-yl)phenyl)methanone], the values for the inhibition at 10 µM at human OX1 receptor (setting [1]) and on human OX2 receptor (setting [2]) were 100% and 97%, respectively.
With `COCC1CN(C(=O)c2ccccc2-n2nccn2)CCN(c2cc(C)nc(C)n2)O1` (centres unmarked) [Example 113, (2-(2,6-dimethylpyrimidin-4-yl)-7-(methoxymethyl)-1,2,5-oxadiazepan-5-yl)(2-(2H-1,2,3-triazol-2-yl)phenyl)methanone], the inhibition (in general, the relative decrease from the control value, in per cent) at 10 µM was 16% at human OX1 receptor (setting [1]) and 102% on human OX2 receptor (setting [2]).
In the case of `Cc1nc(C(F)F)cc(N2CCN(C(=O)c3cc(Cl)ccc3-n3nccn3)C[C@H](C)O2)n1` [Example 103, (5-chloro-2-(2H-1,2,3-triazol-2-yl)phenyl)((7S)-2-(6-(difluoromethyl)-2-methylpyrimidin-4-yl)-7-methyl-1,2,5-oxadiazepan-5-yl)methanone], the inhibition at 10 µM at human OX1 receptor (setting [1]) amounted to 90%; on human OX2 receptor (setting [2]), 100%.
Take `Cc1nc(C(F)F)cc(N2CCN(C(=O)c3cc(F)ccc3-n3nccn3)C[C@H](C)O2)n1` [Example 100, ((7S)-2-(6-(difluoromethyl)-2-methylpyrimidin-4-yl)-7-methyl-1,2,5-oxadiazepan-5-yl)(5-fluoro-2-(2H-1,2,3-triazol-2-yl)phenyl)methanone]: the inhibition at 10 µM turned out to be 42% at human OX1 receptor (setting [1]) and 102% at human OX2 receptor (setting [2]).
Consider `Cc1cncc(N2CCN(C(=O)c3cc(C)ccc3-n3nccn3)[C@H](C)CO2)c1` [Example 131, ((6R)-6-methyl-2-(5-methylpyridin-3-yl)-1,2,5-oxadiazepan-5-yl) (5-methyl-2-(2H-1,2,3-triazol-2-yl)phenyl)methanone], for which the inhibition at 10 µM is -7% at human OX1 receptor and 38% at human OX2 receptor.
On to `CCc1ccc(-n2nccn2)c(C(=O)N2CCON(c3cc(C)nc(C)n3)CC2)c1` [Example 203, (2-(2,6-dimethylpyrimidin-4-yl)-1,2,5-oxadiazepan-5-yl)(5-ethyl-2-(2H-1,2,3-triazol-2-yl)phenyl)methanone], for which the inhibition at 10 µM at human OX1 receptor (setting [1]) turned out to be 25%; on human OX2 receptor (setting [2]), 101%.
`COc1cccc(N2CCN(C(=O)c3ccccc3-n3nccn3)[C@H](C)CO2)n1` [Example 157, ((6R)-2-(6-methoxypyridin-2-yl)-6-methyl-1,2,5-oxadiazepan-5-yl)(2-(2H-1,2,3-triazol-2-yl)phenyl)methanone]: the inhibition at 10 µM stood at 93% at human OX1 receptor (setting [1]) and 91% at human OX2 receptor (setting [2]).
Taken in the same sequence, the figures for `Cc1cc(N2CCN(C(=O)c3cc(Cl)ccc3-n3nccn3)CCO2)nc(C)n1` [Example 25, (5-chloro-2-(2H-1,2,3-triazol-2-yl)phenyl) (2-(2,6-dimethyl-pyrimidin-4-yl)-1,2,5-oxadiazepan-5-yl)methanone] were 61% and 98%.
On to `Cc1nc(N2CCN(C(=O)c3cc(F)c(F)cc3-c3ncccn3)C[C@H](C)O2)cc(C(F)(F)F)n1` [Example 227, (4,5-difluoro-2-(pyrimidin-2-yl)phenyl)((7S)-7-methyl-2-(2-methyl-6-(trifluoromethyl)pyrimidin-4-yl)-1,2,5-oxadiazepan-5-yl)methanone], for which the figures for the inhibition at 10 µM at human OX1 receptor (setting [1]) and on human OX2 receptor (setting [2]) were 78% and 97%, respectively.
Taken in the same sequence, the figures for `Cc1csc(N2CCN(C(=O)c3cc(F)ccc3-n3nccn3)[C@H](C)CO2)n1` [Example 164, (5-fluoro-2-(2H-1,2,3-triazol-2-yl)phenyl)((6R)-6-methyl-2-(4-methyl-1,3-thiazol-2-yl)-1,2,5-oxadiazepan-5-yl)methanone] were 8% and 43%.
Regarding `COc1cccc(OC)c1C(=O)N1CCON(c2nc(C)cc(C)n2)CC1` [Example 47, (2,6-dimethoxyphenyl) (2-(4,6-dimethylpyrimidin-2-yl)-1,2,5-oxadiazepan-5-yl)methanone], the inhibition at 10 µM at human OX1 receptor (setting [1]) stood at 23%; on human OX2 receptor (setting [2]), 97%.
In the case of `Cc1ccc(-n2nccn2)c(C(=O)N2CCN(c3cccc(-n4cccn4)n3)OC[C@H]2C)c1` [Example 138, ((6R)-6-methyl-2-(6-(1H-pyrazol-1-yl)pyridin-2-yl)-1,2,5-oxadiazepan-5-yl) (5-methyl-2-(2H-1,2,3-triazol-2-yl)phenyl)methanone], the figures for the inhibition at 10 µM at human OX1 receptor and at human OX2 receptor were 96% and 95%, respectively.
`Cc1cc(N2CCN(C(=O)c3cc(C(F)(F)F)ccc3-n3nccn3)CCO2)nc(C)n1` [Example 202, (2-(2,6-dimethylpyrimidin-4-yl)-1,2,5-oxadiazepan-5-yl)(2-(2H-1,2,3-triazol-2-yl)-5-(trifluoromethyl)phenyl)methanone]: the inhibition at 10 µM stood at 17% on human OX1 receptor (setting [1]) and 102% at human OX2 receptor (setting [2]).
The like results for `C[C@H]1CN(C(=O)c2ccccc2-n2nccn2)CCN(c2ccn3nccc3n2)O1` [Example 99, ((7S)-7-methyl-2-(pyrazolo[1,5-a]pyrimidin-5-yl)-1,2,5-oxadiazepan-5-yl)(2-(2H-1,2,3-triazol-2-yl)phenyl)methanone] were, in that order, 87% and 98%.
For the molecule `Cc1cc(N2CCN(C(=O)c3ccccc3-c3ccccn3)CCO2)nc(C)n1` [Example 43, (2-(2,6-dimethylpyrimidin-4-yl)-1,2,5-oxadiazepan-5-yl)(2-(pyridin-2-yl)phenyl)methanone hydrochloride], the inhibition at 10 µM on human OX1 receptor (setting [1]) came out at 35%; on human OX2 receptor (setting [2]), 91%.
For the molecule `COc1c(C#N)cccc1C(=O)N1CCON(c2nc(C)cc(C)n2)CC1` [Example 63, 3-((2-(4,6-dimethylpyrimidin-2-yl)-1,2,5-oxadiazepan-5-yl)carbonyl)-2-methoxybenzonitrile], the inhibition at 10 µM on human OX1 receptor is 11%; on human OX2 receptor it was 49%.
With `Cc1ccc(-n2nccn2)c(C(=O)N2CCN(c3cc(C(F)(F)F)ccn3)OC[C@H]2C)c1` [Example 127, (5-methyl-2-(2H-1,2,3-triazol-2-yl)phenyl) ((6R)-6-methyl-2-(4-(trifluoromethyl)pyridin-2-yl)-1,2,5-oxadiazepan-5-yl)methanone], the inhibition at 10 µM stood at 66% at human OX1 receptor (setting [1]) and 86% on human OX2 receptor (setting [2]).
Take `Cc1cc(C#N)nc(N2CCN(C(=O)c3ccccc3-n3nccn3)[C@H](C)CO2)n1` [Example 152, 6-methyl-2-((6R)-6-methyl-5-(2-(2H-1,2,3-triazol-2-yl)benzoyl)-1,2,5-oxadiazepan-2-yl)pyrimidine-4-carbonitrile]: the inhibition at 10 µM on human OX1 receptor (setting [1]) was found to be 82%; on human OX2 receptor (setting [2]), 99%.
With `Cc1ccc(-n2nccn2)c(C(=O)N2CCN(c3cn4ccccc4n3)OC[C@H]2C)c1` [Example 130, ((6R)-2-(imidazo[1,2-a]pyridin-2-yl)-6-methyl-1,2,5-oxadiazepan-5-yl) (5-methyl-2-(2H-1,2,3-triazol-2-yl)phenyl)methanone], the inhibition at 10 µM turned out to be 62% at human OX1 receptor and 56% at human OX2 receptor.
`COc1cncc(N2CCN(C(=O)c3cc(C)ccc3-n3nccn3)[C@H](C)CO2)c1` [Example 132, ((6R)-2-(5-methoxypyridin-3-yl)-6-methyl-1,2,5-oxadiazepan-5-yl) (5-methyl-2-(2H-1,2,3-triazol-2-yl)phenyl)methanone]: the inhibition at 10 µM came out at 10% on human OX1 receptor (setting [1]) and 67% at human OX2 receptor (setting [2]).
Take `Cc1cc(N2CCN(C(=O)c3cc(F)c(F)cc3-c3ncccn3)C[C@H](C)O2)nc(C)n1` [Example 198, (4,5-difluoro-2-(pyrimidin-2-yl)phenyl)((7S)-2-(2,6-dimethylpyrimidin-4-yl)-7-methyl-1,2,5-oxadiazepan-5-yl)methanone]: the inhibition at 10 µM is 80% on human OX1 receptor (setting [1]) and 98% on human OX2 receptor (setting [2]).
Take `CCOC(=O)c1cc(N2CCN(C(=O)c3cc(Cl)ccc3-n3nccn3)C[C@H](C)O2)nc(C)n1` [Example 208, ethyl 6-((7S)-5-(5-chloro-2-(2H-1,2,3-triazol-2-yl)benzoyl)-7-methyl-1,2,5-oxadiazepan-2-yl)-2-methylpyrimidine-4-carboxylate]: the inhibition at 10 µM worked out at 8% on human OX1 receptor (setting [1]) and 14% on human OX2 receptor (setting [2]).
